Results: patent publication US20230075368A1, “IDENTIFICATION OF AN EGFR-BIN3 PATHWAY THAT ACTIVELY SUPPRESSES INVASION AND REDUCES TUMOR SIZE IN GLIOBLASTOMA” (The United States Govemment as represented by the …, priority 2020, published 2023)

System: Mayo PDX cells
Experiment: Matrigel invasion assay
Type: cell-based, human
Experimental: Invasion status of cells was tested with Matrigel Boyden chamber assays (Fisher). 1×10^5 cells were plated on BD BioCoat Matrigel invasion chambers. 24 hours after treatment with drugs, invaded cells were stained with the HEMA-3 kit (Fisher). Invaded cells were counted in 4-5 random fields.
An equal number of cells (5×10^4) were seeded on Matrigel coated inserts, and were untreated (control vehicle) or stimulated with 50 ng/ml EGF for 24 hours, cells invading to the other side of the membrane were counted and presented as percentage cell invasion. […] A similar invasion assay was conducted on GBM26 cells (FIG. 2D). […] Cells were transfected with EGFR or scrambled siRNA for 48 hours before the invasion assay. A similar invasion assay was performed on GBM6 (FIG. 2G). […] Cells were transiently transfected with empty or EGFR wildtype (EGFRwt) overexpressing vector, and invasion assay was performed after 48 hours after transfection. […] Cells were treated with or without 50 ng/ml EGF for 48 hours before the assay. The Western blot images are representative of three independent biological replicates. Actin served as loading control. Data are represented as mean±SEM from three independent experiments. *P<0.05, **P<0.01, n.s. not significant, unpaired two-tailed Student's t-test.
FIG. 3C and FIG. 3D show the results of a Matrigel invasion assay of EGFR siRNA knockdown in GBM12 and GBM6 in response to EGF. Cells were treated with EGFR or scrambled siRNA for 48 hours, transfected cells were seeded on Matrigel coated inserts and were treated with or without 50 ng/ml EGF for 24 hours. […] Cells were transiently transfected with EGFRvIII expression or empty vector, invasion assay was performed 48 hours after transfection. […] Western blot images are representative of three independent biological replicates. Actin served as a loading control. Data are represented as mean±SEM from three independent experiments. […], **P<0.01, ***P<0.001, n.s. not significant, unpaired two-tailed t-test.

## C#Cc1cccc(Nc2ncnc3cc(OCCOC)c(OCCOC)cc23)c1 [erlotinib, Erlotinib]
Erlotinib 1 μM, 24 hours, GBM12, GBM26
  cell invasion: suppressed the invasiveness
erlotinib, 48 h
  cell invasion: returns to baseline
